According to the NIST ThermoML archive (doi:10.1021/je7003758):

Assay: xn = mol fraction of the nth substance listed
Details: 298.15 K, Liquid

CCCCCl [1-chlorobutane] + CN1CCCC1=O
mass density [kg/m3]
Details | x2 = 0.1004 | x2 = 0.2002 | x2 = 0.2974 | x2 = 0.4 | x2 = 0.5052 | x2 = 0.6019 | x2 = 0.7039 | x2 = 0.8011 | x2 = 0.9002
100 kPa | 896.6 | 912 | 926.8 | 942.2 | 957.5 | 971.7 | 986.2 | 1000.1 | 1014.3
500 kPa | 896.9 | – | 927.1 | 942.5 | 957.8 | 972 | 986.5 | 1000.4 | 1014.5
600 kPa | – | 912.3 | – | – | – | – | – | – | –
1000 kPa | 897.4 | 912.7 | 927.5 | 942.8 | 958.2 | 972.2 | 986.8 | 1000.6 | 1014.8
1500 kPa | 897.9 | 913.2 | 927.9 | 943.2 | 958.6 | 972.6 | 987.1 | 1000.9 | 1015.1
2000 kPa | 898.4 | 913.6 | 928.4 | 943.6 | 958.9 | 973 | 987.4 | 1001.2 | 1015.3
2400 kPa | – | – | 928.7 | – | – | 973.3 | – | – | –
2500 kPa | 898.9 | 914.1 | – | 944 | 959.3 | – | 987.7 | 1001.6 | 1015.6
3000 kPa | 899.3 | 914.6 | 929.2 | 944.4 | 959.6 | 973.6 | 988 | 1001.8 | 1015.9
3500 kPa | 899.8 | 915 | 929.6 | 944.8 | 960 | 973.9 | 988.4 | 1002.2 | 1016.2
3900 kPa | – | – | – | – | – | 974.2 | – | – | –
4000 kPa | 900.3 | 915.4 | 930 | 945.1 | 960.3 | – | 988.7 | 1002.4 | 1016.5
4400 kPa | 900.7 | – | – | – | – | – | – | – | 1016.7
4500 kPa | – | 915.9 | 930.4 | 945.6 | 960.7 | 974.6 | 989 | 1002.7 | –
4900 kPa | 901.2 | – | – | – | – | – | – | – | –
5000 kPa | – | 916.3 | 930.8 | 945.9 | 961.1 | – | 989.3 | 1003 | 1017
5100 kPa | – | – | – | – | – | 975 | – | – | –
5400 kPa | 901.7 | – | – | – | – | 975.2 | – | – | –
5500 kPa | – | 916.8 | 931.2 | 946.3 | 961.4 | – | 989.6 | 1003.3 | 1017.3
5900 kPa | – | 917.1 | – | – | – | – | – | – | –
6000 kPa | 902.1 | – | 931.7 | 946.7 | 961.8 | 975.6 | 990 | 1003.6 | 1017.6
6500 kPa | 902.6 | 917.6 | 932.1 | 947.1 | 962.2 | 976 | 990.2 | 1003.9 | 1017.8
6900 kPa | 903 | – | 932.5 | – | – | – | – | – | –
7000 kPa | – | 918.1 | – | 947.5 | 962.5 | 976.3 | 990.6 | 1004.2 | 1018.2
7500 kPa | 903.5 | 918.5 | 932.8 | – | 962.9 | 976.6 | 990.9 | 1004.5 | 1018.4
7600 kPa | – | – | – | 948 | – | – | – | – | –
7900 kPa | 903.9 | – | – | – | – | – | 991.1 | – | –
8000 kPa | – | 918.9 | 933.3 | 948.3 | 963.2 | 976.9 | – | 1004.8 | 1018.7
8400 kPa | – | 919.3 | – | – | – | – | – | – | –
8500 kPa | 904.4 | – | 933.6 | 948.6 | 963.6 | 977.2 | 991.5 | 1005.1 | 1019
8900 kPa | – | 919.7 | – | – | – | 977.5 | 991.7 | – | –
9000 kPa | 904.9 | – | 933.9 | 949 | 963.9 | – | – | 1005.4 | 1019.2
9400 kPa | – | – | 934.3 | – | – | – | 992 | – | –
9500 kPa | 905.3 | 920.2 | – | 949.3 | 964.2 | 977.9 | – | 1005.6 | 1019.5
9900 kPa | – | – | 934.8 | – | – | – | – | – | –
10000 kPa | 905.8 | 920.7 | – | 949.8 | 964.7 | 978.3 | 992.4 | – | 1019.8
10100 kPa | – | – | – | – | – | – | – | 1006.1 | –
10400 kPa | – | – | – | 950.1 | – | – | – | – | –
10500 kPa | – | 921.1 | 935.3 | – | 965 | 978.6 | 992.7 | 1006.3 | 1020.1
10600 kPa | 906.4 | – | – | – | – | – | – | – | –
10900 kPa | 906.7 | – | – | 950.4 | – | – | – | – | –
11000 kPa | – | 921.5 | 935.6 | – | 965.4 | 978.9 | 993 | 1006.6 | 1020.4
11400 kPa | – | 921.9 | – | – | – | – | 993.3 | – | –
11500 kPa | 907.2 | – | 936 | 950.8 | 965.7 | 979.3 | – | 1006.8 | 1020.6
11900 kPa | – | – | 936.3 | – | – | – | – | – | –
12000 kPa | 907.6 | 922.4 | – | 951.2 | 966 | 979.6 | 993.6 | 1007.1 | 1020.9
12400 kPa | – | – | – | 951.6 | – | 979.8 | 993.9 | – | –
12500 kPa | 908.1 | 922.8 | 936.8 | – | 966.4 | – | – | 1007.4 | 1021.1
12900 kPa | – | – | – | – | – | – | – | 1007.6 | –
13000 kPa | 908.5 | 923.2 | 937.1 | 951.9 | 966.7 | 980.2 | 994.2 | – | 1021.4
13400 kPa | – | – | – | – | – | – | 994.5 | – | –
13500 kPa | 908.9 | 923.6 | 937.6 | 952.3 | 967 | – | – | 1008 | 1021.7
13600 kPa | – | – | – | – | – | 980.6 | – | – | –
13900 kPa | – | – | – | 952.7 | – | – | – | – | –
14000 kPa | – | – | 937.8 | – | 967.4 | – | 994.8 | 1008.2 | 1022
14100 kPa | 909.5 | 924.1 | – | – | – | 981 | – | – | –
14400 kPa | – | – | – | 953 | 967.7 | – | – | – | 1022.2
14500 kPa | 909.8 | 924.4 | 938.2 | – | – | 981.1 | 995.1 | 1008.5 | –
15000 kPa | 910.2 | 924.7 | 938.6 | 953.4 | 968 | 981.5 | – | 1008.8 | 1022.5
15100 kPa | – | – | – | – | – | – | 995.6 | – | –
15500 kPa | 910.7 | 925.2 | 939 | 953.8 | – | 981.8 | 995.7 | 1009.1 | –
15600 kPa | – | – | – | – | 968.5 | – | – | – | 1022.8
16000 kPa | 911.1 | 925.6 | 939.4 | 954.1 | 968.7 | 982.1 | 996 | 1009.3 | 1023
16400 kPa | – | 926 | 939.7 | – | – | 982.4 | – | – | –
16500 kPa | 911.5 | – | – | 954.4 | 969.1 | – | 996.3 | 1009.6 | 1023.2
16900 kPa | – | – | 940.1 | – | – | – | – | – | –
17000 kPa | 911.9 | 926.3 | – | 954.8 | 969.4 | 982.8 | 996.6 | 1009.9 | 1023.4
17400 kPa | – | – | 940.5 | – | – | – | – | 1010.2 | –
17500 kPa | 912.3 | 926.7 | – | 955.2 | 969.7 | 983 | 996.8 | – | 1023.8
18000 kPa | 912.7 | 927.1 | 940.8 | – | 970.1 | – | 997.2 | 1010.5 | 1024
18100 kPa | – | – | – | 955.6 | – | 983.4 | – | – | –
18500 kPa | 913.1 | 927.6 | – | 955.8 | 970.3 | 983.6 | 997.5 | – | 1024.2
18600 kPa | – | – | 941.4 | – | – | – | – | 1010.8 | –
19000 kPa | 913.6 | 928 | 941.7 | 956.2 | 970.8 | 984 | – | 1011 | 1024.5
19100 kPa | – | – | – | – | – | – | 997.9 | – | –
19400 kPa | 913.9 | – | – | – | – | – | – | – | –
19500 kPa | – | 928.3 | 942.1 | 956.6 | 971 | 984.3 | 998 | 1011.3 | 1024.8
20000 kPa | 914.5 | 928.7 | 942.6 | 957 | 971.4 | 984.6 | 998.4 | 1011.6 | 1025.1
